From PMC10076643, “Design, synthesis and anticancer activity studies of 3-(coumarin-3-yl)-acrolein derivatives: Evidenced by integrating network pharmacology and vitro assay” (Frontiers in Pharmacology, 2023)

Columns and labels:
[1] = tested on: A549 (human lung cancer cell line); assay: MTT antiproliferative assay, A549; format: cell-based; details: Homo sapiens, A549; MTT, 72 h
Text: (§1) All the synthesized compounds were screened for in vitro antiproliferative activity against four human cancer cell lines A549 (human lung cancer cell line), KB (human oral epidermoid carcinoma cell line), Hela (human cervical carcinoma cell line), MCF-7 (human breast cancer cell line) and two human normal cell lines HUVEC (human umbilical vein endothelial cell) and LO2 (human normal hepatocytes) through the 3-(4,5-dimethyl-2-thiazolyl)-2,5-diphenyl-2-H-tetrazolium bromide (MTT) assay.
(§2) Non-small-cell lung cancer (A549), oral epidermoid carcinoma (KB), cervical cancer (Hela) and breast cancer (MCF-7) cells were purchased from the American Type Culture Collection (ATCC, America). Human umbilical vein endothelial cell (HUVEC) and human normal hepatocytes (LO2) cells were provided by Guangzhou Medical University (Guangzhou, China). A549 and KB cells were cultured in RMPI-1640 medium (Gibco, America). Hela, MCF-7 and LO2 cells were cultured in DMEM medium (Gibco, America). HUVEC cells were cultured in Ham’s F-12K medium (Gibco, America). All the mediums were supplemented with 10% fetal bovine serum (FBS) (BI, State of Israel), 100 U/mL penicillin and 100 μg/mL streptomycin (Gibco, America), and all the cells were incubated in a sterile incubator at 37°C in an environment of 5% CO2. The tested compounds were dissolved in dimethyl sulfoxide (DMSO) at a concentration of 10 mM, and then diluted into different concentration of solutions by culture medium. The final concentration of DMSO was <0.01% (v/v) in all drug treatment groups to avoid the toxicity in the biological system. Untreated cells were used as a blank control and 5-fluorouracil treated cells were used as a positive control.
(§3) The incubated tumor cells were planted into 96-well plates (4×10^3 cells/well). After 24 h, the cells were adherent to the wall and treated with the compound 6e in different concentrations (0.78, 1.56, 3.12, 6.25, 12.50, 25.00, and 50.00 μM) for 72 h. Afterwards, the medium was supplemented with 10 µL MTT solution. After 4 h, the culture medium was removed and 100 µL DMSO was added. The absorbance was determined at the wavelength of 540 nm and 655 nm using a microplate reader (BioTek Epoch, America). The results were collected from three independent experiments. The IC50 was then calculated by using GraphPad Prism Software (version 7.0) and non-linear regression (curve fit).

[2] = tested on: KB cells; assay: Transwell migration assay; format: cell-based, human; details: 2 IC50, 48 h
Experimental: Wound healing assay and transwell assay were performed to investigate the effect of compound 6e on the migratory capability of KB cells.
Initially, KB cells (5×10^4 cells/well) were suspended in 200 μL of the FBS-free medium. Each upper chamber contained the vehicle and various concentrations of compound 6e (0.5 IC50, IC50, 2 IC50). Each lower chamber was filled with 600 μL of medium containing 10% FBS. After incubation at 37°C for 48 h, the cells upon the transwell membrane were removed with a cotton tip. The cells trapped on the bottom side of the membrane were fixed with methanol for 1 h and stained with crystal violet solution for 2 h. Subsequently, the chambers thoroughly washed with PBS. The migrated cells were then imaged with the inverted fluorescence microscope (Leica DMi8, Germany) and counted with ImageJ software for three independent fields randomly.

[3] = tested on: Bax in KB cells; assay: Western blot, Bax; format: cell-based, human; details: 0.40 μM, 24 h
Text: (§4) Based on the results of network pharmacology, the key proteins related to PI3K/AKT pathway were detected by Western blotting to explore the antitumor mechanism of compound 6e. […] Such an inconsistency might be due to a compensatory increase in PI3K level after the reduction of AKT phosphorylation level. Additionally, the active-caspase 3 protein, anti-apoptosis protein Bcl-2 and pro-apoptosis protein Bax were further analyzed. Caspase-3 normally exists in the cytoplasm as zymogen. During the early stage of apoptosis, caspase-3 (32 KD) is cleaved to the active 17-kD caspase-3 fragment, which is responsible for morphological and biochemical changes in apoptosis. Bcl-2 and Bax are the […] located on the mitochondrial membrane and capable of controlling the MMP (ΔΨm) and the activation of caspase cascade.
(§5) A total of 4 × 10^5 KB cells were seeded into 6-well and grown for overnight. Then the cells adherent to the wall were treated with compound 6e in different concentrations (0, 0.40, 0.80, 1.60 μM) for 24 h. After that, cells were collected, SDS lysate, 100X protease inhibitor and 50X phosphorylation inhibitor were added in a certain proportion to lyse the cells. The protein content was determined by BCA reagent (Beyotime, China) according to the standard curve. […]

[4] = tested on: Bcl-2 in KB cells; assay: Western blot, Bcl-2; format: cell-based, human; details: 0.40 μM, 24 h
Text: as §4, §5

[5] = tested on: HUVEC (human umbilical vein endothelial cell); assay: MTT antiproliferative assay, HUVEC normal cells; format: cell-based; details: 72 h
Text: as §1, §2, §3

[6] = tested on: KB cells; assay: Transwell invasion assay (Matrigel); format: cell-based, human; details: 2 IC50, 48 h
Experimental: Transwell invasion assay was carried out to evaluate the effect of compound 6e on KB cell invasion.
For invasion assay, the transwells (8 μm pore size, Corning Incorporated) were precoated with 40 μL Matrigel for 2 h at 37°C to achieve solidification. KB cells were harvested and resuspended in serum-free medium, treated with different concentrations of compound 6e (0.5 IC50, IC50, 2 IC50), and added into the upper wells of the transwell chamber at density of 1×10^5 cells/200 μL. Then 600 μL of RPMI-1640 containing 10% FBS was added into each lower chamber. After 48 h, the invaded cells in the lower champers were fixed with paraformaldehyde for 1 h and stained with crystal violet solution for 2 h. The non-invading cells in the upper chambers of the transwell plates were scraped away by cotton swabs. Next, the chambers were washed with PBS. The invaded cells were then imaged with the inverted fluorescence microscope (Leica DMi8, Germany) and counted with ImageJ software for three independent fields randomly.

[7] = tested on: KB (human oral epidermoid carcinoma cell line); assay: MTT antiproliferative assay, KB; format: cell-based
Text: as §1, §2, §3

[8] = tested on: AKT phosphorylation in KB cells; assay: Western blot, pAKT/AKT; format: cell-based, human; details: increased concentration (0.40, 0.80, 1.60 μM), 24 h
Text: as §4, §5

IC50 [1]: 7.4 ± 0.2 µM | IC50 ([7]; Homo sapiens, MTT, 72 h): 390 ± 70 nM | IC50 against KB cells lower than that of HUVECs (selectivity) ([7]; KB vs HUVEC): 65 fold
Compound: O=CC=C(Cl)c1cc2ccc(OCc3ccccc3)cc2oc1=O [Compound 6e, 3-(7-(Benzyloxy)-2-oxo-2H-chromen-3-yl)-3-chloroacrylaldehyde]
number of migration cells reduced compared with the control group [2]: approximately 93% | expression of Bax compared with the control group [3]: upregulated | expression of Bcl-2 compared with the control group [4]: visibly decreased | proportion of Bcl-2 to Bax [4]: decrease | IC50 [5]: 25.26 ± 0.2 µM | KB cell invasion reduced [6]: more than 64% | antiproliferative activity higher than 5-FU ([7]; KB cells, relative to 5-FU): 15 fold | IC50 against KB cells lower than that of LO2 cells (selectivity) ([7]; KB vs LO2): 129 fold | pAKT/AKT ratios [8]: remarkably decreased
